In patent publication US20220007644A1, “COMPOSITIONS COMPRISING PYRIDINE CARBOXYLATE HERBICIDES WITH PHOTOSYSTEM II AND OPTIONAL HPPD INHIBITOR HERBICIDES” (Corteva Agriscience LLC, priority 2018, published 2022):

What was measured:
Type in all cases: in vivo
[1] = system: POLCO, Polygonum convolvulus (wild buckwheat); experiment: Greenhouse postemergence herbicidal effect (visual injury, 20-22 d)
Description: (§1) Greenhouse Trial Methodology—Evaluation of Postemergence Herbicidal Effect
(§2) Seeds of the desired test plant species were planted in a 90:10% v/v (volume/volume) mixture of PRO-MIX® BX (Premier Tech Horticulture, Quakertown, Pa., USA) and PROFILE®GREENS GRADE™ (Profile Products LLC, Buffalo Grove, Ill., USA) planting mixture, which typically has a pH of 5.2 to 6.2 and an organic matter content of at least 50 percent, in plastic pots with a surface area of 103.2 square centimeters (cm^2). In some aspects, to help ensure good germination and healthy plants, a fungicide treatment and/or other chemical or physical treatment was applied. The plants were grown for 7-36 days (d) in a greenhouse with an approximate 14-hour (h) photoperiod which was maintained at about 23° C. during the day and 22° C. during the night. Nutrients and water were added on a regular basis and supplemental lighting was provided with overhead metal halide 1000-Watt lamps as necessary. The plants were employed for testing when they reached the second or third true leaf stage.
(§3) Emulsifiable concentrates of each of each pyridine carboxylate herbicide (Compound A or Compound B) were prepared at 100 grams acid equivalent per liter (g ae/L). The emulsifiable concentrates also included a safener, cloquintocet-mexyl, at 120 grams active ingredient per liter (g ai/L), unless otherwise noted below. An aliquot of each emulsifiable concentrate was placed in a 25 mL glass vial and diluted with an aqueous mixture of 1.25% (v/v) ACTIROB® B esterified rapeseed oil (Bayer Crop Science, Research Triangle Park, N.C., USA) or MSO® Concentrate with LECI-TECH® methylated soybean oil (Loveland Products, Loveland, Colo., USA) to obtain concentrated stock solutions at the highest application rate for each herbicide, based upon a 12 milliliter (mL) application volume at a rate of 187 liters per hectare (L/ha). The concentrated stock solutions were further diluted with an aqueous mixture of 1.25% v/v ACTIROB® B or MSO® Concentrate with LECI-TECH® to obtain stock solutions at reduced application rates for each herbicide. Spray solutions of the herbicide combinations (Compound A or Compound B plus PS-II herbicide and optional HPPD herbicide) were prepared by adding weighed amounts or aliquots of the PS-II herbicide and optional HPPD herbicide to the stock solutions of Compound A or Compound B to form 12-mL spray solutions in two- or three-way combinations.
(§4) The spray solutions were applied to the plant material with an overhead Mandel track sprayer equipped with 8002E nozzles calibrated to deliver 187 L/ha over an application area of 0.503 square meters (m^2) at a spray height of 18 inches ([…] centimeters (cm)) above the average plant canopy. Control plants were sprayed in the same manner with the solvent blank. All pyridine carboxylate herbicide (component a) application rates are given as “g ae/ha” and all PS II inhibitor herbicide (component b) and HPPD inhibitor herbicide (component c) application rates are given as “g ai/ha.”
(§5) The treated plants and control plants were placed in a greenhouse as described above and watered by sub-irrigation to prevent wash-off of the test compounds. After 20-22 d, the condition of the test plants as compared with that of the control plants was determined visually and scored on a scale of 0 to 100 percent where 0 corresponds to no injury and 100 corresponds to complete kill.

[2] = system: SASKR, Salsola kali (Russian thistle); experiment: as above
Description: as §1, §2, §3, §4, §5

[3] = system: BRSNN, Brassica napus (spring rape); experiment: as above
Description: as §1, §2, §3, §4, §5

[4] = system: KCHSC, Kochia scoparia (kochia); experiment: as above
Description: as §1, §2, §3, §4, §5

[5] = system: SINAR, Sinapis arvensis (wild mustard); experiment: as above
Description: as §1, §2, §3, §4, §5

[6] = system: CHEAL, Chenopodium album L. (common lambsquarters); experiment: as above
Description: as §1, §2, §3, §4, §5

[7] = system: VIOTR, Viola tricolor (wild pansy); experiment: as above
Description: as §1, §2, §3, §4, §5

[8] = system: ALOMY, Alopecurus myosuroides (blackgrass); experiment: as above; settings: 450 g ai/ha alone
Description: as §1, §2, §3, §4, §5

[9] = system: AVEFA, Avena fatua (wild oat); experiment: as above; settings: 450 g ai/ha alone
Description: as §1, §2, §3, §4, §5

[10] = system: HORVS, Hordeum vulgare (spring barley); experiment: Greenhouse postemergence phytotoxicity on crop (visual injury, 20-22 d)
Description: as §1, §2, §3, §4, §5

[11] = system: TRZAS, Triticum aestivum (spring wheat); experiment: as above
Description: as §1, §2, §3, §4, §5

[12] = system: CIRAR, Cirsium arvense (Canada thistle); experiment: Greenhouse postemergence herbicidal effect (visual injury, 20-22 d)
Description: as §1, §2, §3, §4, §5

[13] = system: AMARE, Amaranthus retroflexus (pigweed); experiment: as above; settings: 900 g ai/ha alone
Description: as §1, §2, §3, §4, §5

[14] = system: MATCH, Matricaria chamomilla (wild chamomile); experiment: as above; settings: 900 g ai/ha alone
Description: as §1, §2, §3, §4, §5

[15] = system: BRSNW, Brassica napus (winter rape); experiment: as above; settings: 900 g ai/ha alone
Description: as §1, §2, §3, §4, §5

[16] = system: SETFA, Setaria faberi (giant foxtail); experiment: as above
Description: as §1, §2, §3, §4, §5

[17] = system: ABUTH, Abutilon theophrasti (velvetleaf); experiment: as above
Description: as §1, §2, §3, §4, §5

[18] = system: EPHHL, Euphorbia heterophylla (poinsettia); experiment: as above
Description: as §1, §2, §3, §4, §5

[19] = system: STEME, Stellaria media (chickweed); experiment: as above
Description: as §1, §2, §3, §4, §5

In the case of `CC(C)c1nn(C(=O)NC(C)(C)C)c(=O)n1N` [Amicarbazone, 4-amino-N-tert-butyl-4,5-dihydro-3-isopropyl-5-oxo-1H-1,2,4-triazole-1-carboxamide], the pest or weed control at 175 g/ha ([1]; Fallopia convolvulus, post-emergence, 175 g ai/ha alone, read-out: visual injury Obs) is reported as 10%, the “visual injury Obs” value ([2]; 175 g ai/ha alone) is reported as 0% and the “visual injury Obs” value ([3]; 175 g ai/ha alone) is reported as 38%. The “visual injury Obs” value ([4]; 175 g ai/ha alone) was 25%, the “visual injury Obs” value ([5]; 175 g ai/ha alone) was 25% and the “visual injury Obs” value ([6]; 175 g ai/ha alone) was 38%.
`CCNc1nc(Cl)nc(NC(C)C)n1` [Atrazine, 6-chloro-N^2-ethyl-N^4-isopropyl-1,3,5-triazine-2,4-diamine, reference compound] was tested, and the “visual injury Obs” value ([7]; 450 g ai/ha alone) was 20%, the “visual injury Obs” value [8] was 25% and the “visual injury Obs” value [9] was 13%. For the same compound, the “visual injury Obs” value ([3]; 450 g ai/ha alone) was 28%.
`CC(C)N1C(=O)c2ccccc2NS1(=O)=O` [Bentazone, 3-isopropyl-1H-2,1,3-benzothiadiazin-4(3H)-one 2,2-dioxide] was tested, and the “visual injury Obs” value ([10]; 51.5 g ai/ha alone) was 0%, the “visual injury Obs” value ([11]; 51.5 g ai/ha alone) was 0% and the pest or weed control at 51.5 g/ha ([1]; Fallopia convolvulus, post-emergence, 51.5 g ai/ha alone, read-out: visual injury Obs) was 20%. For the same compound, the “visual injury Obs” value ([3]; 51.5 g ai/ha alone) was 30%.
With `CCC(C)n1c(=O)[nH]c(C)c(Br)c1=O` (stereo not drawn) [Bromacil, 5-bromo-3-sec-butyl-6-methyluracil] the “visual injury Obs” value ([10]; 900 g ai/ha alone) was 10%, the “visual injury Obs” value ([11]; 900 g ai/ha alone) was 0% and the pest or weed control at 900 g/ha ([1]; Fallopia convolvulus, post-emergence, read-out: visual injury Obs) was 10%. For the same compound, the “visual injury Obs” value ([2]; 900 g ai/ha alone) was 25%, the “visual injury Obs” value ([12]; 900 g ai/ha alone) was 18% and the “visual injury Obs” value ([4]; 900 g ai/ha alone) was 91%. For the same compound, the “visual injury Obs” value ([5]; 900 g ai/ha alone) was 35%, the “visual injury Obs” value [13] was 20% and the “visual injury Obs” value [14] was 5%. For the same compound, the “visual injury Obs” value ([6]; 900 g ai/ha alone) was 53% and the “visual injury Obs” value [15] was 5%.
With `C#CCOC(=O)c1nc(-c2ccc3cc[nH]c3c2F)c(F)c(N)c1Cl` [Compound B, propargyl 4-amino-3-chloro-5-fluoro-6-(7-fluoro-1H-indol-6-yl)pyridine-2-carboxylate] the visual injury ([1]; 7.5 g ae/ha alone) was 73%, the visual injury ([1]; 10 g ae/ha alone) was 80% and the “% visual injury, Obs” value ([1]; POLCO, Compound B 10 g/ha) was 80%. The visual injury ([12]; 7.5 g ae/ha alone) was 45%, the visual injury ([12]; 10 g ae/ha alone) was 45% and the “% visual injury, Obs” value ([12]; CIRAR, Compound B 10 g/ha) was 45%. The visual injury ([7]; 7.5 g ae/ha alone) was 10%, the visual injury ([7]; 10 g ae/ha alone) was 40% and the “% visual injury, Obs” value ([7]; VIOTR, Compound B 10 g/ha) was 40%. The visual injury ([16]; 7.5 g ae/ha alone) was 70%, the visual injury ([16]; 10 g ae/ha alone) was 55% and the “% visual injury, Obs” value ([16]; SETFA, Compound B 10 g/ha) was 55%. The visual injury ([17]; 7.5 g ae/ha alone) was 68%, the visual injury ([17]; 10 g ae/ha alone) was 68% and the “% visual injury, Obs” value ([17]; ABUTH, Compound B 10 g/ha) was 68%. It also gave a visual injury ([3]; 7.5 g ae/ha alone) of 68%, a visual injury ([3]; 10 g ae/ha alone) of 85% and a visual injury ([4]; 7.5 g ae/ha alone) of 68%. For the same compound, the visual injury ([4]; 10 g ae/ha alone) was 80%, the “% visual injury, Obs” value ([4]; KCHSC, Compound B 10 g/ha) was 80% and the visual injury ([18]; 7.5 g ae/ha alone) was 83%. The visual injury ([18]; 10 g ae/ha alone) was 99%, the “% visual injury, Obs” value ([18]; EPHHL, Compound B 10 g/ha) was 99% and the visual injury ([19]; 7.5 g ae/ha alone) was 100%. For the same compound, the visual injury ([19]; 10 g ae/ha alone) was 93%, the “% visual injury, Obs” value ([19]; STEME, Compound B 10 g/ha) was 93% and the visual injury ([6]; 7.5 g ae/ha alone) was 85%. For the same compound, the visual injury ([6]; 10 g ae/ha alone) was 90% and the “% visual injury, Obs” value ([6]; CHEAL, Compound B 10 g/ha) was 90%.
